This note sets out measurements from patent US20250381243A1, “HETEROCYCLES AND USES THEREOF” (Kumquat Biosciences Inc., priority 2022, published 2025).

The first assay concerns A549 cells. The assay can be described thus: Cell proliferation assay (CellTiter-Glo), cells with K-Ras G12S mutation. Type of assay: cell-based. The settings on record: Homo sapiens, 500 nM to 5 μM (mixed units), read-out: Inhibition of A549 Cells (IC50). In short, it runs like this:
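A549 (K-Ras G12S) cells in RPMI-1640 with 10% heat-inactivated FBS, plated in standard or ultra-low-attachment 384-well format, treated next day with a dilution series (e.g., 10-point, 3-fold). Viability read by CellTiter-Glo luminescence about 6 days later; IC50 from four-parameter fit.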
A general note: Cellular ATP, detected with luciferase, serves as a proxy for viable cell number.
As usually defined, the IC50 is the concentration needed to halve the response being measured. As to `C[C@H]1CC[C@]2(CN(C(=O)n3cnc(C#N)n3)[C@@H]2C2(C)CC2)CN1c1nc(OC[C@@]23CCCN2C[C@H](F)C3)nc2c(F)c(-c3ccc(F)c4sc(N)c(C#N)c34)c(Cl)cc12` [Compound 232, 1-((1R,4R,7S)-6-(7-(2-amino-3-cyano-7-fluorobenzo[b]thiophen-4-yl)-6-chloro-8-fluoro-2-(((2R,7aS)-2-fluorotetrahydro-1H-pyrrolizin-7a(5H)-yl)methoxy)quinazolin-4-yl)-7-methyl-1-(1-methylcyclopropyl)-2,6-diazaspiro[3.5]nonane-2-carbonyl)-1H-1,2,4-triazole-3-carbonitrile], the IC50 lay within 500 to 5000 nM.

The same assay, now with this note: Homo sapiens, ≤500 nM, read-out: Inhibition of A549 Cells (IC50).
With `CC(C)[C@H]1N(C(=O)n2cnc(C#N)n2)C[C@]12CC[C@H](C)N(c1nc(OC[C@@]34CCCN3C[C@H](F)C4)nc3c(F)c(-c4ccc(F)c5sc(N)c(C#N)c45)c(Cl)cc13)C2` [Compound 227, 1-((1R,4R,7S)-6-(7-(2-amino-3-cyano-7-fluorobenzo[b]thiophen-4-yl)-6-chloro-8-fluoro-2-(((2R,7aS)-2-fluorotetrahydro-1H-pyrrolizin-7a(5H)-yl)methoxy)quinazolin-4-yl)-1-isopropyl-7-methyl-2,6-diazaspiro[3.5]nonane-2-carbonyl)-1H-1,2,4-triazole-3-carbonitrile], the IC50 is at most 500 nM.
Same read-out and setting: as for `CN(C[C@@H]1CN(C(=O)n2cnc(C(F)F)n2)[C@@H]1C(C)(C)C)c1nc(OC[C@@]23CCCN2C[C@H](F)C3)nc2c(F)c(-c3ccc(F)c4sc(N)c(C#N)c34)c(Cl)cc12` [Compound 228, 2-amino-4-(4-((((2S,3R)-2-(tert-butyl)-1-(3-(difluoromethyl)-1H-1,2,4-triazole-1-carbonyl)azetidin-3-yl)methyl)(methyl)amino)-6-chloro-8-fluoro-2-(((2R,7aS)-2-fluorotetrahydro-1H-pyrrolizin-7a(5H)-yl)methoxy)quinazolin-7-yl)-7-fluorobenzo[b]thiophene-3-carbonitrile], the figure is at most 500 nM.
On the same count and under the same terms, then `C[C@H]1CC[C@]2(CN(C(=O)n3cnc(C(F)F)n3)[C@@H]2C2CCC2)CN1c1nc(OC[C@@]23CCCN2C[C@H](F)C3)nc2c(F)c(-c3ccc(F)c4sc(N)c(C#N)c34)c(Cl)cc12` [Compound 229, 2-amino-4-(6-chloro-4-((1R,4R,7S)-1-cyclobutyl-2-(3-(difluoromethyl)-1H-1,2,4-triazole-1-carbonyl)-7-methyl-2,6-diazaspiro[3.5]nonan-6-yl)-8-fluoro-2-(((2R,7aS)-2-fluorotetrahydro-1H-pyrrolizin-7a(5H)-yl)methoxy)quinazolin-7-yl)-7-fluorobenzo[b]thiophene-3-carbonitrile], with at most 500 nM.
Still for that read-out and setting: as for `CC(C)[C@@H]1[C@H](CN(C)c2nc(OC[C@@]34CCCN3C[C@H](F)C4)nc3c(F)c(-c4ccc(F)c5sc(N)c(C#N)c45)c(Cl)cc23)CN1C(=O)n1cnc(C(F)F)n1` [Compound 230, 2-amino-4-(6-chloro-4-((((2R,3R)-1-(3-(difluoromethyl)-1H-1,2,4-triazole-1-carbonyl)-2-isopropylazetidin-3-yl)methyl)(methyl)amino)-8-fluoro-2-(((2R,7aS)-2-fluorotetrahydro-1H-pyrrolizin-7a(5H)-yl)methoxy)quinazolin-7-yl)-7-fluorobenzo[b]thiophene-3-carbonitrile], the figure is at most 500 nM; as for `CC1([C@H]2N(C(=O)n3cnc(C(F)F)n3)C[C@]23CCCN(c2nc(OC[C@@]45CCCN4C[C@H](F)C5)nc4c(F)c(-c5ccc(F)c6sc(N)c(C#N)c56)c(Cl)cc24)C3)CC1` [Compound 234, 2-amino-4-(6-chloro-4-((1R,4R)-2-(3-(difluoromethyl)-1H-1,2,4-triazole-1-carbonyl)-1-(1-methylcyclopropyl)-2,6-diazaspiro[3.5]nonan-6-yl)-8-fluoro-2-(((2R,7aS)-2-fluorotetrahydro-1H-pyrrolizin-7a(5H)-yl)methoxy)quinazolin-7-yl)-7-fluorobenzo[b]thiophene-3-carbonitrile], at most 500 nM.
`CC(C)[C@H]1N(C(=O)n2cnc(F)n2)C[C@]12CC(CC#N)CN(c1nc(OC[C@@]34CCCN3C[C@H](F)C4)nc3c(F)c(-c4ccc(F)c5sc(N)c(C#N)c45)c(Cl)cc13)C2` (stereo partly drawn) [Compound 235, 2-amino-4-(6-chloro-4-((1R,4R)-8-(cyanomethyl)-2-(3-fluoro-1H-1,2,4-triazole-1-carbonyl)-1-isopropyl-2,6-diazaspiro[3.5]nonan-6-yl)-8-fluoro-2-(((2R,7aS)-2-fluorotetrahydro-1H-pyrrolizin-7a(5H)-yl)methoxy)quinazolin-7-yl)-7-fluorobenzo[b]thiophene-3-carbonitrile]: the concentration for half-maximal inhibition (IC50) was at most 500 nM.
Same read-out and setting: then `CN(C[C@@H]1CN(C(=O)n2cnc(C(F)F)n2)[C@@H]1C1CCC1)c1nc(OC[C@@]23CCCN2C[C@H](F)C3)nc2c(F)c(-c3ccc(F)c4sc(N)c(C#N)c34)c(Cl)cc12` [Compound 236, 2-amino-4-(6-chloro-4-((((2R,3R)-2-cyclobutyl-1-(3-(difluoromethyl)-1H-1,2,4-triazole-1-carbonyl)azetidin-3-yl)methyl)(methyl)amino)-8-fluoro-2-(((2R,7aS)-2-fluorotetrahydro-1H-pyrrolizin-7a(5H)-yl)methoxy)quinazolin-7-yl)-7-fluorobenzo[b]thiophene-3-carbonitrile], with at most 500 nM.
Still for that read-out and setting: then `CN(C[C@@H]1CN(C(=O)n2cnc(C#N)n2)[C@@H]1C1(C)CC1)c1nc(OC[C@@]23CCCN2C[C@H](F)C3)nc2c(F)c(-c3ccc(F)c4sc(N)c(C#N)c34)c(Cl)cc12` [Compound 237, 1-((2S,3R)-3-(((7-(2-amino-3-cyano-7-fluorobenzo[b]thiophen-4-yl)-6-chloro-8-fluoro-2-(((2R,7aS)-2-fluorotetrahydro-1H-pyrrolizin-7a(5H)-yl)methoxy)quinazolin-4-yl)(methyl)amino)methyl)-2-(1-methylcyclopropyl)azetidine-1-carbonyl)-1H-1,2,4-triazole-3-carbonitrile], with at most 500 nM.
